Test results published in patent US6242425A, “Quinolinone glycoside, production process, and anti-allergic agent” (Dainippon Ink and Chemicals, Inc., priority 1998, dated 2001).

Assays:
[1] = test system: homologous passive cutaneous anaphylaxis (PCA) reaction in rats; test: Effect on homologous passive cutaneous anaphylaxis (PCA) reaction in rats; type: in vivo, rat (male wistar rats); details: vs vehicle control
Method: Effect on homologous passive cutaneous anaphylaxis (PCA) reaction in rats
This experimental animal model is caused by immediate type allergic reaction, namely, antigen-antibody reaction. In the following, the method of this pharmacological test will be explained.
Method: Male wistar rats (9 weeks old) were intradermally administered 0.05 ml of anti-serum against dinitrophenylated ascaris (DNP-As) into two sites on the shaved dorsal skin. 48 hours later, glycosyloxyquinolinone derivatives (test compounds) suspended in 0.5% methylcellulose (MC) were given i.v. at a dose of 0.5 mg/kg to the animals. 1 hour after administration of Test compounds, the animals were induced anaphylaxis by injection of saline (1 ml) dissolving 1 mg of trinitrophenylated ascaris (TNP-As) and 5 mg of Evans Blue into the tail vein of the animals. 30 minutes after induction of anaphylaxis, animals were anesthetized by ether and killed by bleeding, and were flayed dorsal skin. The leakage of dye was assessed by measuring the diameter (mean of shortest and longest diameter) of the blue spot on the inside surface of dorsal skin. As vehicle control group, only 0.5% MC solution was administered orally, and as positive control group, Tranilast suspended in 0.5% MC were administered orally at a dose of 100 mg/kg to the animals with the same method as the test compounds groups. Each experimental group consisted of 5 rats.
In the conditions of this experiment, it was considered that the compound, which inhibited PCA reaction by over forty (40) percent against that in vehicle control group, was evidently effective for immediate type allergy.
(§1) Inhibition (%)=(A-B)/A×100
A: leakage of dye in vehicle control group
B: leakage of dye in test compound group or positive control group

[2] = test system: immediate type asthmatic response; test: Effect on experimental immediate type asthma model in guinea pigs (airway resistance); type: in vivo, guinea pig (male hartley guinea pigs); details: airway resistance 1 minute after challenge
Description: (§2) Effect on experimental immediate and delayed type asthma model in guinea pigs
(§3) The asthma is typical allergic disease and we carried out this pharmacological test by experimental asthmatic model in guinea pigs in order to confirm that the compounds of the present invention, compound 14, 16, 20, 26 and 32, suppress immediate and delayed type asthmatic response. In the following, the method of the pharmacological test will be explained.
(§4) Method: Male hartley guinea pigs were sensitized by exposured aerosolized ovalbumine (OVA) (1% in saline) for 10 minutes per a day at eight times. The aerosol was generated by an ultrasonic nebulizer (NE-U12, Omron inc.). One week after final sensitization, the animals were challenged with inhalation of OVA (2% in saline) for 5 minutes. The animals were pretreated with metyrapone (10 mg/kg, i.v.) at 1 and 4 hours before the challenge, and pyrilamine (10 mg/kg, i.p.) at 30 minutes before the challenge. airway resistance in the conscious animals were measured for 1 minute with PULMOS-1 (made in Medical Interface Project Station Inc.) at 1 minute, 2, 4, 5, 6, 7, 8 and 23 to 24 hours after the challenge. Compound 14, 16, 20, 26 and 32 (test compound) suspended in 0.5% methylcellulose (MC) solution were given i.v. at doses of 0.2 and 0.5 mg/kg 1 hour before and 3 hours after the challenge. As a positive control group, Prednisolone was given orally at a dose of 10 mg/kg 2 hours and 16 hours before the challenge. As vehicle control group, only 0.5% MC solution was given orally.
(§5) The evaluation of the effect of the compounds on immediate and delayed type asthmatic response was undertaken with percentage of change in airway resistance 1 minute after the challenge and the area under the response curve for percentage of change in airway resistance between 4 and 8 hours after the challenge, respectively.
(§6) The inhibition (%) of the compounds for immediate and delayed type asthmatic response was calculated according to equation 2 and the result was shown in table 2. Each experimental group consisted of 8 guinea pigs.
as §1
(§7) A: percentage of change in airway resistance in vehicle control group
(§8) B: percentage of change in airway resistance in test compound group or positive control group

[3] = test system: delayed type asthmatic response; test: Effect on experimental delayed type asthma model in guinea pigs (airway resistance); type: in vivo, guinea pig (male hartley guinea pigs); details: AUC of airway resistance change 4-8 hours after challenge
Description: as §2, §3, §4, §5, §6, §1, §7, §8

[4] = 0.5 mg/kg i.v., 1 hour before challenge
[5] = 0.2 mg/kg i.v., 1 hour before and 3 hours after challenge
[6] = 0.5 mg/kg i.v., 1 hour before and 3 hours after challenge
[7] = positive control, 10 mg/kg orally, 2 and 16 hours before challenge

| SMILES | inhibition (%) of PCA reaction [1, 4] | immediate type asthma inhibition % [2, 5] | immediate type asthma inhibition % [2, 6] | delayed type asthma inhibition (%) [3, 5] | delayed type asthma inhibition (%) [3, 6] | other results |
| --- | --- | --- | --- | --- | --- | --- |
| CCCCCCCCOc1c(O[C@@H]2O[C@H](C(=O)O)[C@@H](O)[C@H](O)[C@H]2O)c2ccc(NC(=O)/C=C/c3cc(OC)c(O[C@@H]4O[C@H](C(=O)O)[C@@H](O)[C@H](O)[C@H]4O)c(OC)c3)cc2n(C)c1=O [Compound 14] | 54% | 29% | 37% | 64% | 73% |  |
| CCCCCCCCOc1c(O)c2ccc(NC(=O)/C=C/c3cc(OC)c(O[C@@H]4O[C@H](C(=O)O)[C@@H](O)[C@H](O)[C@H]4O)c(OC)c3)cc2n(C)c1=O [Compound 15, 7-[3,5-dimethoxy-4-(β-D-glucuropyranosyloxy)cinnamoyl]amino-3-octyloxy-4-hydroxy-1-methyl-2(1H)-quinolinone] | 42% |  |  |  |  |  |
| CCCCCCCCOc1c(O[C@@H]2O[C@H](C(=O)O)[C@@H](O)[C@H](O)[C@H]2O)c2ccc(NC(=O)/C=C/c3cc(OC)c(O)c(OC)c3)cc2n(C)c1=O [Compound 16, 7-(3,5-dimethoxy-4-hydroxycinnamoyl)amino-3-octyloxy-4-(β-D-glcuropyranosyloxy)-1-methyl-2(1H)-quinolinone] | 41% | 22% | 26% | 42% | 51% |  |
| CCCCCCCCOc1c(O[C@@H]2O[C@H](CO)[C@@H](O)[C@H](O)[C@H]2O)c2ccc(NC(=O)/C=C/c3cc(OC)c(O[C@@H]4O[C@H](CO)[C@@H](O)[C@H](O)[C@H]4O)c(OC)c3)cc2n(C)c1=O [Compound 20, 7-[3,5-dimethoxy-4-(β-D-glucopyranosyloxy)cinnamoyl]amino-3-octyloxy-4-(β-D-glucopyranosyloxy)-1-methyl-2(1H)-quinolinone] | 49% | 27% | 38% | 57% | 61% |  |
| CCCCCCCCOc1c(O)c2ccc(NC(=O)/C=C/c3cc(OC)c(O[C@@H]4O[C@H](CO)[C@@H](O)[C@H](O)[C@H]4O)c(OC)c3)cc2n(C)c1=O [Compound 21, 7-[3,5-dimethoxy-4-(β-D-glucopyranosyloxy)cinnamoyl]amino-3-octyloxy-4-hydroxy-1-methyl-2(1H)-quinolinone] | 46% |  |  |  |  |  |
| CCCCCCCCOc1c(O[C@@H]2O[C@H](CO)[C@@H](O)[C@H](O)[C@H]2O)c2ccc(NC(=O)/C=C/c3cc(OC)c(O)c(OC)c3)cc2n(C)c1=O [Compound 22, 7-(3,5-dimethoxy-4-hydroxycinnamoyl)amino-3-octyloxy-4-(β-D-glucopyranosyloxy)-1-methyl-2(1H)-quinolinone] | 42% |  |  |  |  |  |
| CCCCCCCCOc1c(O[C@@H]2O[C@H](CO)[C@H](O)[C@H](O)[C@H]2O)c2ccc(NC(=O)/C=C/c3cc(OC)c(O[C@@H]4O[C@H](CO)[C@H](O)[C@H](O)[C@H]4O)c(OC)c3)cc2n(C)c1=O [Compound 26, 7-[3,5-dimethoxy-4-(β-D-galactopyranosyloxy)cinnamoyl]amino-3-octyloxy-4-(β-D-galactopyranosyloxy)-1-methyl-2(1H)-quinolinone] | 50% | 25% | 37% | 52% | 63% |  |
| CCCCCCCCOc1c(O)c2ccc(NC(=O)/C=C/c3cc(OC)c(O[C@@H]4O[C@H](CO)[C@H](O)[C@H](O)[C@H]4O)c(OC)c3)cc2n(C)c1=O [Compound 27, 7-[3,5-dimethoxy-4-(β-D-galactopyranosyloxy)cinnamoyl]amino-3-octyloxy-4-hydroxy-1-methyl-2(1H)-quinolinone] | 46% |  |  |  |  |  |
| CCCCCCCCOc1c(O[C@@H]2O[C@H](CO)[C@H](O)[C@H](O)[C@H]2O)c2ccc(NC(=O)/C=C/c3cc(OC)c(O)c(OC)c3)cc2n(C)c1=O [Compound 28, 7-(3,5-dimethoxy-4-hydroxycinnamoyl)amino-3-octyloxy-4-(β-D-galactopyranosyloxy)-1-methyl-2(1H)-quinolinone] | 43% |  |  |  |  |  |
| CCCCCCCCOc1c(O[C@H]2O[C@H](CO)[C@@H](O)[C@H](O)[C@@H]2O)c2ccc(NC(=O)/C=C/c3cc(OC)c(O[C@H]4O[C@H](CO)[C@@H](O)[C@H](O)[C@@H]4O)c(OC)c3)cc2n(C)c1=O [Compound 32, 7-[3,5-dimethoxy-4-(α-D-mannopyranosyloxy)cinnamoyl]amino-3-octyloxy-4-(α-D-mannopyranosyloxy)-1-methyl-2(1H)-quinolinone] | 45% | 26% | 34% | 49% | 57% |  |
| CCCCCCCCOc1c(O)c2ccc(NC(=O)/C=C/c3cc(OC)c(O[C@H]4O[C@H](CO)[C@@H](O)[C@H](O)[C@@H]4O)c(OC)c3)cc2n(C)c1=O [Compound 33, 7-[3,5-dimethoxy-4-(α-D-mannopyranosyloxy)cinnamoyl]amino-3-octyloxy-4-hydroxy-1-methyl-2(1H)-quinolinone] | 40% |  |  |  |  |  |
| CCCCCCCCOc1c(O[C@H]2O[C@H](CO)[C@@H](O)[C@H](O)[C@@H]2O)c2ccc(NC(=O)/C=C/c3cc(OC)c(O)c(OC)c3)cc2n(C)c1=O [Compound 34, 7-(3,5-dimethoxy-4-hydroxycinnamoyl)amino-3-octyloxy-4-(α-D-mannopyranosyloxy)-1-methyl-2(1H)-quinolinone] | 42% |  |  |  |  |  |
| C[C@]12C=CC(=O)C=C1CC[C@@H]1[C@@H]2[C@@H](O)C[C@@]2(C)[C@H]1CC[C@]2(O)C(=O)CO [Prednisolone, reference compound] |  |  |  |  |  | immediate type asthma inhibition % [2, 7]: 27%; delayed type asthma inhibition (%) [3, 7]: 69% |
| COc1ccc(/C=C/C(=O)Nc2ccccc2C(=O)O)cc1OC [Tranilast, reference compound] |  |  |  |  |  | inhibition (%) of PCA reaction ([1]; positive control, 100 mg/kg orally): 52% |
